Calls of active or inactive are those of the source.
Experiments:
[1] = biological target: T1, Small ubiquitin-related modifier 1 (Homo sapiens, UniProt P63165); assay: SUMO1 protein-protein binding blockers, potency – biochemical, FRET, dose response (AID 624383); type: functional; details: read-out: IC50_Mean
[2] = biological target: T2, Apoptotic protease-activating factor 1 (Homo sapiens, UniProt O14727); assay: activation of Apaf-1 mediated apoptosis – fluorescent, uHTS hits, dose response (AID 588554); type: functional
T2 sequence (O14727 whole entry): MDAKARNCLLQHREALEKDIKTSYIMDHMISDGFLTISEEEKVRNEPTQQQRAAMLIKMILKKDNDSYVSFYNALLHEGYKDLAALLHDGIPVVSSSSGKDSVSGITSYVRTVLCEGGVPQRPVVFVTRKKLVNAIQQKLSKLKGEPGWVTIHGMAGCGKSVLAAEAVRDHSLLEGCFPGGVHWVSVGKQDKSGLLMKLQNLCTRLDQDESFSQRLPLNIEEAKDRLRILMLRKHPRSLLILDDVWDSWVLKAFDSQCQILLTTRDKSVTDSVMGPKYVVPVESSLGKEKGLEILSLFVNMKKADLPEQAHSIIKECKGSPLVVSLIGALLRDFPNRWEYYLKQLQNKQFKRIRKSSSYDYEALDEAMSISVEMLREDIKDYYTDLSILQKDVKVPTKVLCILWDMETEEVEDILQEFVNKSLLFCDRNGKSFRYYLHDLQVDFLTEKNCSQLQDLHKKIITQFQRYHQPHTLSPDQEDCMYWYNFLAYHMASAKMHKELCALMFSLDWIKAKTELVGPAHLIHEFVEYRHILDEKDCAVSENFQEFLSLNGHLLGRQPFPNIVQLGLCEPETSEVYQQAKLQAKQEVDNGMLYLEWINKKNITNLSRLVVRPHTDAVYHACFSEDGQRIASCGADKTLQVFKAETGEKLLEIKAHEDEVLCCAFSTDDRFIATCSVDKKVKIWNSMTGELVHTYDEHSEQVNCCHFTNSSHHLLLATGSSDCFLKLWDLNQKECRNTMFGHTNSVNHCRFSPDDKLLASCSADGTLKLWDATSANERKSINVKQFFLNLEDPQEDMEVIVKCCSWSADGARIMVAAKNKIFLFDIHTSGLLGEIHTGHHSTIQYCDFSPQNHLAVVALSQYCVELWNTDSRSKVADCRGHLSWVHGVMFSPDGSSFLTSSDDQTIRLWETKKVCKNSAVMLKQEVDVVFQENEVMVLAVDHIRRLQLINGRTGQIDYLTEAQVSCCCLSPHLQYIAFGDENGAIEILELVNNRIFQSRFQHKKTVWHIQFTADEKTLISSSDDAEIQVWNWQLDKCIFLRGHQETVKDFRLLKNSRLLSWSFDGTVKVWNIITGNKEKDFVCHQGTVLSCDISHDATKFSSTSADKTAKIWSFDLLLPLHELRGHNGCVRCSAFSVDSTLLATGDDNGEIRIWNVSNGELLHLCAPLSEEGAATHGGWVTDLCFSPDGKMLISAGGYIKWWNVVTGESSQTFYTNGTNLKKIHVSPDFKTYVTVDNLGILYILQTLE

[3] = biological target: T3, Carboxy-terminal domain RNA polymerase II polypeptide A small phosphatase 1 (Homo sapiens, UniProt Q9GZU7); assay: CTDSP1 inhibitors, concentration-response, biochemical, absorbance readout, ultra-high-throughput screen actives (AID 540297); type: functional
T3 sequence (Q9GZU7 whole entry): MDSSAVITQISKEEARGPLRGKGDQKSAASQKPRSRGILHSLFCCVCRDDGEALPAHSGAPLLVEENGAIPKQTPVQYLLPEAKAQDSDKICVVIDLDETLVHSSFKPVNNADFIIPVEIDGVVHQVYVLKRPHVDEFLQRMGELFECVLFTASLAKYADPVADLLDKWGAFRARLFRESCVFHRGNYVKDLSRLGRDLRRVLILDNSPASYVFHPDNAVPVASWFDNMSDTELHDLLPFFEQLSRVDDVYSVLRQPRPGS

[4] = biological target: Beta-adrenergic receptor kinase 1 (Homo sapiens, UniProt P25098); assay: blockers of aptamer binding to GRK2 – biochemical, flow cytometry beads, FAM-aptamer, powder set 1, dose response (AID 588720)
Beta-adrenergic receptor kinase 1, sequence (P25098 whole entry): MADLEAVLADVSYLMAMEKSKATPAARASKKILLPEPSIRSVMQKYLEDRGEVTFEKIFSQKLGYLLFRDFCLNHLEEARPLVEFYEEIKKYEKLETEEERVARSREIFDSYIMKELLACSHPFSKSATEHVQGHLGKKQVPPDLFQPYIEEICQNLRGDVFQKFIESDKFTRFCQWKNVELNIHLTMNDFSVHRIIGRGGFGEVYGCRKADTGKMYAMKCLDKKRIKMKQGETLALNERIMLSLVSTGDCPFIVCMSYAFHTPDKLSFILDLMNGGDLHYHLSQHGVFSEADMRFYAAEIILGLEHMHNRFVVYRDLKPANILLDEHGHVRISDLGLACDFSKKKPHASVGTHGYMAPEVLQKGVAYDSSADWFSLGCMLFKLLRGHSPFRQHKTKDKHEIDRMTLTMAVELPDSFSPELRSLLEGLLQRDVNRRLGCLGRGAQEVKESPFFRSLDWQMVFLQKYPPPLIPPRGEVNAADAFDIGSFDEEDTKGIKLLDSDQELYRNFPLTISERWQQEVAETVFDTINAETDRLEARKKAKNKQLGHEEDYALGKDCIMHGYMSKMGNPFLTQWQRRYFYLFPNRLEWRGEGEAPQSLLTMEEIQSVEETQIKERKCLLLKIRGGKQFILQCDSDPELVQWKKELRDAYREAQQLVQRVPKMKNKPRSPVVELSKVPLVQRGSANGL

[5] = biological target: T1, Small ubiquitin-related modifier 1; assay: SUMO1 protein interaction blockers, potency – biochemical, fluorescence polarization, uHTS hits, dose response (AID 624382); type: functional; details: read-out: IC50_Mean
Jurkat = assay: SAR Analysis of small molecule inhibitors of […] specific antigen receptor-induced NF-kB activation in a Jurkat cell line using a luminescence assay - Set 3. [Related pubchem assays (depositor defined):AID435022, AID435025, AID465]; type: functional, cell-based; details: Homo sapiens
HEK293 [6] = assay: HEK293T cell viability loss, resazurin readout – resazurin fluorescence, cytotoxicity control for NF-kB activator project, SAR follow-up (AID 493251); type: functional, cell-based; details: Homo sapiens
HEK293 [7] = assay: SAR Analysis of small molecule inhibitors of B-cell specific antigen receptor-induced NF-kB activation in a HEK-293T cell line using a luminescence assay - Set 2. [Related pubchem assays (depositor defined):AID435022, AID435025, AID489021]; type: functional, cell-based; details: Homo sapiens
[8] = biological target: T4, Tyrosine-protein phosphatase non-receptor type 12 (Homo sapiens, UniProt Q05209); assay: SAR Selectivity Analysis of small molecule inhibitors of PEST using pCAP in a fluorescence assay. [Related pubchem assays (depositor defined):AID1779, AID1784, AID2135]; type: functional
T4 sequence (Q05209 whole entry): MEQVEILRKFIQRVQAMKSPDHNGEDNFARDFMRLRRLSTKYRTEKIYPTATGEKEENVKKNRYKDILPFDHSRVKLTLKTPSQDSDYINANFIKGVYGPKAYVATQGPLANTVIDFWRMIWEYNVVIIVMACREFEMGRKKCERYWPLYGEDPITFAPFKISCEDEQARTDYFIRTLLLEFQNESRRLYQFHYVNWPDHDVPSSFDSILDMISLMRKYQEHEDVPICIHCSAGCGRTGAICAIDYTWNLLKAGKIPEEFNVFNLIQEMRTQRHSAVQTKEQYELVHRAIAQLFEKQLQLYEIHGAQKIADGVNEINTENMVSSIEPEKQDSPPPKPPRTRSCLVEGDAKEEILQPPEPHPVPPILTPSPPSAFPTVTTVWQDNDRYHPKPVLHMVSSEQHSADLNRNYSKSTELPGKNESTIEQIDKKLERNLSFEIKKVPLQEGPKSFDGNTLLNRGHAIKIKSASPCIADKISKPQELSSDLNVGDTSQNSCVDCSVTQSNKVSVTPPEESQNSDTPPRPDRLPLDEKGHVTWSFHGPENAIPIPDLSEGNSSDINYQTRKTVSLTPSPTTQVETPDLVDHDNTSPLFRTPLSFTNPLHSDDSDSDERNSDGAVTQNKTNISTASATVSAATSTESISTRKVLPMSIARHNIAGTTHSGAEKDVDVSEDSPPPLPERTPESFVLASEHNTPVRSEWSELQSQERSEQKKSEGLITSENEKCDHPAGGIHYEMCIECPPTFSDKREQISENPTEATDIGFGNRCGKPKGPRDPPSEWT

[9] = biological target: T5, Tyrosine-protein phosphatase non-receptor type 7 (Homo sapiens, UniProt P35236); assay: redox-active compounds inhibiting HePTP phosphatase – biochemical, fluorescence, mechanism study (AID 2068); type: functional
T5 sequence (P35236 whole entry): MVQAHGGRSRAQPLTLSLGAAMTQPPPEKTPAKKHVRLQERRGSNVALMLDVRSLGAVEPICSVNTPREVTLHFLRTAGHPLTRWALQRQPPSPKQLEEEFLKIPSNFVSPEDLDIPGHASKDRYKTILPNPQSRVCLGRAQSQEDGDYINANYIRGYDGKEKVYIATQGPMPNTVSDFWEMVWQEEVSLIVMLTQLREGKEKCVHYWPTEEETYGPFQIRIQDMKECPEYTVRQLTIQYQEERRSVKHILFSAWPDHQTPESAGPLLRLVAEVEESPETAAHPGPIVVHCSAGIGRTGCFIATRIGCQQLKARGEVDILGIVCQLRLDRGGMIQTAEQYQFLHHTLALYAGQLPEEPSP

[10] = biological target: Dual specificity protein phosphatase 6 (Rattus norvegicus, UniProt Q64346); type: functional;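 further: confirmatory in vitro dose-response testing of MKP-3 inhibition; recombinant His-tagged MKP-3 made in E. coli BL21 with OMFP substrate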
Dual specificity protein phosphatase 6, sequence (Q64346 whole entry): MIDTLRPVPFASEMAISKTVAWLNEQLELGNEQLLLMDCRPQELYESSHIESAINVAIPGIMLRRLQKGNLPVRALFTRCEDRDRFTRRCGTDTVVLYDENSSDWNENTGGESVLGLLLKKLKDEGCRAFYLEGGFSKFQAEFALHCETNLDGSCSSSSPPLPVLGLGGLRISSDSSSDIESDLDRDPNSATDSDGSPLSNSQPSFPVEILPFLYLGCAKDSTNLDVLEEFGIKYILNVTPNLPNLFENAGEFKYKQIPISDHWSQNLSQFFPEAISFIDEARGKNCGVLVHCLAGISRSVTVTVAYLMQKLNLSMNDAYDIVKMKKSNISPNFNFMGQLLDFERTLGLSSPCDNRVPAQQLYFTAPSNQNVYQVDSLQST

SUMO-activating enzyme [11] = biological target: T6, SUMO-activating enzyme (Homo sapiens, UniProt Q9UBT2); assay: blockers of UBC9-mediated SUMO conjugation – biochemical, AlphaScreen, SUMOylation inhibitor project, confirmation (AID 2018); type: functional
T6 sequence (Q9UBE0 whole entry): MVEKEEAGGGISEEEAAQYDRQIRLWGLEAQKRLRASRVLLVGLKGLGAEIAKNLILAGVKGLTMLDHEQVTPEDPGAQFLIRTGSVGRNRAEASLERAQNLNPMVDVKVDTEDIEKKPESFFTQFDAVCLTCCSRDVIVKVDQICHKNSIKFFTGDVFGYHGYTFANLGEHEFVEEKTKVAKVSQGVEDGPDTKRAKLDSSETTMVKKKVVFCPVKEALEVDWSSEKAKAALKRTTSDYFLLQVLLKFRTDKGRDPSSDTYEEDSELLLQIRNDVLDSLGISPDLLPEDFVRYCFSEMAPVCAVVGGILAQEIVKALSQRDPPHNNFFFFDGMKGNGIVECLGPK
T6 sequence (Q9UBT2 whole entry): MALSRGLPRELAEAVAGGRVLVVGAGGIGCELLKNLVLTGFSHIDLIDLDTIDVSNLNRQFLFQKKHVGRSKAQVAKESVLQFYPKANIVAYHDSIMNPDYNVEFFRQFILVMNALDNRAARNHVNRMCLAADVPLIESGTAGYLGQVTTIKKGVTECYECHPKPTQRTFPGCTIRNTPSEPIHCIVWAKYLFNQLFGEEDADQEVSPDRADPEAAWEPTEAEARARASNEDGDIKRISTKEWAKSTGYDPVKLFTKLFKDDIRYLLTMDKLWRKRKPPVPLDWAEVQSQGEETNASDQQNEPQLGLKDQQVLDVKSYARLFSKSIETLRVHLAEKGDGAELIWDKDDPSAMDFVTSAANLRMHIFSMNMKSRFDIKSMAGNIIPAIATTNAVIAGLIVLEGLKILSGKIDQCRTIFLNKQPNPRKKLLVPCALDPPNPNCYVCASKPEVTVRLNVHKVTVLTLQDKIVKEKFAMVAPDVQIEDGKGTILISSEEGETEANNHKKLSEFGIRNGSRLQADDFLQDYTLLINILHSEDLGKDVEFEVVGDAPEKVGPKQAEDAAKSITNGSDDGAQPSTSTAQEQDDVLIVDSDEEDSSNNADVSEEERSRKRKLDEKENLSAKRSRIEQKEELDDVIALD

[12] = biological target: T7, Tyrosine-protein phosphatase non-receptor type 22 (Homo sapiens, UniProt Q9Y2R2); assay: inhibition of lymphoid tyrosine phosphatase LYP – biochemical, pCAP fluorogenic substrate, fluorescence, set 3, SAR follow-up (AID 449727); type: functional
T7 sequence (Q9Y2R2 whole entry): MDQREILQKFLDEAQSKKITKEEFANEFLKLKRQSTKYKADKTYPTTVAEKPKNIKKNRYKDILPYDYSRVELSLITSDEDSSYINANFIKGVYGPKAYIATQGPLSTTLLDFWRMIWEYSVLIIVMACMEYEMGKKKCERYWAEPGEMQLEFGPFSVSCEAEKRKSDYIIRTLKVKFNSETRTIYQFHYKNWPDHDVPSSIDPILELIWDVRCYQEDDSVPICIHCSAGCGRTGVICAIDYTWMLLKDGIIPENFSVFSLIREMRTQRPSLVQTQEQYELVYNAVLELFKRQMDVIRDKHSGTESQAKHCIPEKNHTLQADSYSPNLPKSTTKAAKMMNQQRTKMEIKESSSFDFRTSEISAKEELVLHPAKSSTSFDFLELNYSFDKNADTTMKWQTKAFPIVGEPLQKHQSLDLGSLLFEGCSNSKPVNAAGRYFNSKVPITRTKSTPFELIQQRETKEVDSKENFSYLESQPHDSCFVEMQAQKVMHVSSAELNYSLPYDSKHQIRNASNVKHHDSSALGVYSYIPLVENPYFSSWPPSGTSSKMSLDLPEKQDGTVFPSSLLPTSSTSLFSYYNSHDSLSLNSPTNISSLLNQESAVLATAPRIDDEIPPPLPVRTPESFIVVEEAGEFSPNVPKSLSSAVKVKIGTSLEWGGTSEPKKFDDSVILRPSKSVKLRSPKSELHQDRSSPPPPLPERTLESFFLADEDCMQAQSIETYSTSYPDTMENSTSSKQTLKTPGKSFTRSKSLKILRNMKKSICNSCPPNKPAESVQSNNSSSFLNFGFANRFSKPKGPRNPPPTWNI

[13] = biological target: T5, Tyrosine-protein phosphatase non-receptor type 7; assay: inhibition of hematopoietic tyrosine phosphatase HePTP – biochemical, set 2, SAR follow-up (AID 449736); type: functional
[14] = biological target: T7, Tyrosine-protein phosphatase non-receptor type 22; assay: SAR LYP1 Fluorescent Assay using OMFP substrate for In Vitro dose response studies - Set 3. [Related pubchem assays (depositor defined):AID1779, AID1784, AID2140, AID2686]; type: functional
[15] = biological target: Dual specificity protein phosphatase 3 (Homo sapiens, UniProt P51452); assay: SAR VHR1 Fluorescent Assay for In Vitro dose response studies Set 2. [Related pubchem assays (depositor defined):AID1654, AID1661, AID1878]; type: functional
Dual specificity protein phosphatase 3, sequence (P51452 whole entry, the tested form may be a part): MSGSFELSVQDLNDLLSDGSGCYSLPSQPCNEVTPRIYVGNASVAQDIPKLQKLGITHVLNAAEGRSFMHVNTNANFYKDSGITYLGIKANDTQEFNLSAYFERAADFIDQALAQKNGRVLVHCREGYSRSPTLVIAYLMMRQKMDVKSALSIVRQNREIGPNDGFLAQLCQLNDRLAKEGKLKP

[16] = biological target: Arf-GAP with SH3 domain, ANK repeat and PH domain-containing protein 1 (Homo sapiens, UniProt Q9ULH1); type: functional;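 further: biochemical fluorescence polarization dose–response screen measuring inhibition of ASAP1; ASAP1 GAP domain stimulating GTP hydrolysis by truncated human ARF1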
Arf-GAP with SH3 domain, ANK repeat and PH domain-containing protein 1, sequence (Q9ULH1 whole entry, the tested form may be a part): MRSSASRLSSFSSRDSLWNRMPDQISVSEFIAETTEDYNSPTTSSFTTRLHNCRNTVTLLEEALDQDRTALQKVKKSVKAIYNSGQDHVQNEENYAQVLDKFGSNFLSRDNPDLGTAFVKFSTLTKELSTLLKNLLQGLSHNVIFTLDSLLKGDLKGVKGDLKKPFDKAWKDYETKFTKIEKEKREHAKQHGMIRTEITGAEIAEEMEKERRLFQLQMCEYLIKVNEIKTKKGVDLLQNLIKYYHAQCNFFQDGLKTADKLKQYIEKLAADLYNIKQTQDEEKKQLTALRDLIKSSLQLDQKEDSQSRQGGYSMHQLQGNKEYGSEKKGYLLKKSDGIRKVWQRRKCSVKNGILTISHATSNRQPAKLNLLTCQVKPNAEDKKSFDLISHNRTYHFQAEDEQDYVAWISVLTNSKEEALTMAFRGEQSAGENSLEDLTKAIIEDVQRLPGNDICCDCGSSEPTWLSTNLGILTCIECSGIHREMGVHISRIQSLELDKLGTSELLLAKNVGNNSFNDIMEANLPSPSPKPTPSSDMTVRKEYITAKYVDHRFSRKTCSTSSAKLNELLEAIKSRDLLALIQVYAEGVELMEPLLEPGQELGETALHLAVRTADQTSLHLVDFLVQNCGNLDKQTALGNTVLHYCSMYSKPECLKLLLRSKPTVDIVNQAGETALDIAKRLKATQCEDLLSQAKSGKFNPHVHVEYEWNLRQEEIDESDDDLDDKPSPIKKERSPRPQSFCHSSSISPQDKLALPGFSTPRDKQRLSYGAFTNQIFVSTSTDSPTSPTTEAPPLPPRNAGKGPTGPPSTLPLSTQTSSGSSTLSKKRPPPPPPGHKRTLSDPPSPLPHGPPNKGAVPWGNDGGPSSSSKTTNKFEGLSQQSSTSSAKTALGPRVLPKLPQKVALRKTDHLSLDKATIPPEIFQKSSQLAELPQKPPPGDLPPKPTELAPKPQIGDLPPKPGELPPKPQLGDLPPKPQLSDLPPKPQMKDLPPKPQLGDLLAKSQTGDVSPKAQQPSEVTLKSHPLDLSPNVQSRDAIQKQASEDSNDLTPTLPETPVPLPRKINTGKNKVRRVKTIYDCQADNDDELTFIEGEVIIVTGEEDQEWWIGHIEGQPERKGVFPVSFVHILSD

SUMO-activating enzyme [17] = biological target: T6, SUMO-activating enzyme; assay: blockers of SAE1/SAE2–UBC9 SUMO transfer – biochemical, HTRF, uHTS, primary screen (AID 2006); type: protein-complex assay

T1 sequence (P63165 whole entry): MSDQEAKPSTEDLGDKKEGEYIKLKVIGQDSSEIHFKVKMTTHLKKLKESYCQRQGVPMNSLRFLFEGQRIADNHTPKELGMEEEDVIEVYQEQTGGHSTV

Structure (SMILES)	IC50 [1]	EC50 [2]	IC50 [3]	EC50 [4]	IC50 [5]	IC50 (Jurkat)	IC50 (HEK293 [6])	IC50 (HEK293 [7])	IC50 [8]	IC50 [9]	IC50 [10]	IC50 (SUMO-activating enzyme [11])	IC50 [12]	IC50 [13]	IC50 [14]	IC50 [15]	IC50 [16]	IC50 (SUMO-activating enzyme [17])
CCOc1ccccc1NC(=O)CCS(=O)(=O)c1ccc(Br)cc1	6.76 µM (active)	11.6 µM (active)	4.09 µM (active)	0.337 µM (active)	> 66.6 µM (inactive)													
CCOc1ccc(-c2noc(CCC(=O)NC)n2)cc1						> 80 µM (inactive)	> 80 µM (inactive)	> 80 µM (inactive)										
Cc1ccc(NC(=O)CN2C(=O)S/C(=C\c3cc(Cl)c(OCC(=O)O)c(Cl)c3)C2=O)cc1			2.5 µM (active)						2.79 µM (active)	0.819 µM (active)	17.8 µM (active)	8.11 µM (active)	4.09 µM (active)	0.596 µM (active)	3.95 µM (active)	3.55 µM (active)	6.61 µM (active)	13.5 µM (active)

From ChEMBL document CHEMBL1201862, “PubChem BioAssay data set” (2004)
